Test results taken from article PMC9841532, “Exploring the Effect of Halogenation in a Series of Potent and Selective A2B Adenosine Receptor Antagonists” (Journal of Medicinal Chemistry, 2022).
Values after ≈ are worked out from the molar mass of the structure shown. Read-outs that look alike come from different tables or passages of the source.

Tests used:
A2B = conditions: cited from earlier work
[1] = Human microsomal stability; type: in vitro ADME; conditions: human microsomes; for half-life at 1 h / microsomal CLint at 1 h: human, pH 7.4; for half-life at 1 h: read-out: microsomal stability t1/2; for microsomal stability percent (percentage remanent): sampling time 60 min; for microsomal CLint at 1 h: read-out: microsomal stability Clint (intrinsic clearance)
Description: The human microsomal stability of selected compounds was evaluated by following a previously described method.[31] The human microsomes employed were purchased from Tebu-Xenotech. The compound was incubated with the microsomes at 37 °C in a 50 mM phosphate buffer (pH = 7.4) containing 3 mM MgCl2, 1 mM NADP, 10 mM glucose-6-phosphate, and 1 U/mL glucose-6-phosphate-dehydrogenase. Samples (75 μL) were taken from each well at 0, 10, 20, 40, and 60 min and transferred to a plate containing 4 °C 75 μL acetonitrile and 30 μL of 0.5% formic acid in water was added for improving the chromatographic conditions. The plate was centrifuged (46,000 g, 30 min), and supernatants were taken and analyzed in a UPLC-MS/MS (Xevo TQD, Waters) by employing a BEH C18 column and an isocratic gradient of 0.1% formic acid in water:0.1% formic acid acetonitrile (60:40). The metabolic stability of the compounds was calculated from the logarithm of the remaining compounds at each of the time point studied.

CYP3A4 = target: T1, CYP3A4 (Homo sapiens, UniProt P08684); assay: CYP3A4 inhibition (fluorescence, substrates DBF or 7-BFC); type: biochemical; conditions: for IC50: IC50 obtained by extrapolation with analysis software
T1 construct: host or cells: insect cell microsomes
Description: To identify potential metabolic liabilities within the series here documented, the selected A2BAR antagonists were tested in vitro for CYP3A4 inhibitory activity.
The inhibitory activity of selected compounds was evaluated by following a previously described method.[31] […] The plate was then pre-incubated at 37 °C for 5 min and the reaction initiated by the addition of a pre-warmed enzyme/substrate (E/S) mix. The E/S mix contained buffer (KH2PO4), c-DNA-expressed P450 in insect cell microsomes, substrate (DBF: dibenzylfluorescein or 7-BFC: 7-benzyloxy-4-trifluoromethyl-coumarin) and other components to give the final assay concentrations in a reaction volume of 200 μL. Reactions were terminated after various times (a specific time for each cytochrome) by addition of STOP solution (ACN/Tris–HCl 0.5 M 80:20, and NaOH 2 N for CYP3A4). Fluorescence per well was measured using a fluorescence plate reader (Tecan Infinite M1000 PRO), and percentage of inhibition was calculated. In silico predictions were performed using free web-based models (FAME 3, SmartCYP, and Xenosite).[62]−[64]

[2] = Solubility determination (nephelometry); type: physicochemical; conditions: 1:99 DMSO/PSB buffer, PBS pH 7, 37 °C
Description: The solubility of selected compounds was evaluated by following a previously described method.[31] A 10 mM stock solution of the compound was serially diluted in 100% DMSO, and 2.5 μL of this solution was added to a 384-well UV-transparent plate (Greiner) containing 47.5 μL of PBS (pH = 7). The plate was incubated at 37 °C for 4 h, and the light scattering was measured in a NEPHELOstar Plus reader (BMG LABTECH). The data was fitted to a segmented linear regression for measuring the compound solubility.

hA3AR [3] = target: T2, hA3AR (Homo sapiens, UniProt P0DMS8); assay: Radioligand binding competition, [3H]NECA, membranes from HeLa-A3 cells; conditions: 1 μM, [3H]NECA, human HeLa cells, n = 2
T2 construct: expressed in transfected cells; host or cells: HeLa (HeLa-A3) cell membranes
T2 sequence (P0DMS8 1-318): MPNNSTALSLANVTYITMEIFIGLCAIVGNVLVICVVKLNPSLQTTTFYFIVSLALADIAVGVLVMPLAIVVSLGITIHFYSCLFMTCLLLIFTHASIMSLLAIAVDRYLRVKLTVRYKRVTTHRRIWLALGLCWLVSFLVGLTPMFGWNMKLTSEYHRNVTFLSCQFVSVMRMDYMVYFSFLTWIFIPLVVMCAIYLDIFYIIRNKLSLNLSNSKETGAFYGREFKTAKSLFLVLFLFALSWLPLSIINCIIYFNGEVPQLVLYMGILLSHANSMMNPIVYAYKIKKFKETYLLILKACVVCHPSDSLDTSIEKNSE
In short: (§1)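 Racemates, plus selected enantiomers after chiral resolution, were tested at 25 °C, with a 60 min incubation for one subtype and 30 min for others. Non-specific binding was defined with 10 μM or 100 μM R-PIA. Bound radioactivity was counted after washing and filtration.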

hA2BAR = target: T3, hA2BAR (Homo sapiens, UniProt P29275); assay: Radioligand binding competition, [3H]DPCPX, membranes from HEK-293-A2B cells; parameters: Exp. dG: unit not given here; conditions: for Ki: read-out: Ki hA2B; for Exp. dG: experimental binding free energy, Supplementary Table S3, unit not given (errors in kcal/mol); for % at 1 μM hA2B (percentage displacement of specific binding): [3H]DPCPX, human HEK-293 cells, n = 2
T3 construct: host or cells: HEK-293 (HEK-293-A2B) cell membranes
T3 sequence (P29275 1-332): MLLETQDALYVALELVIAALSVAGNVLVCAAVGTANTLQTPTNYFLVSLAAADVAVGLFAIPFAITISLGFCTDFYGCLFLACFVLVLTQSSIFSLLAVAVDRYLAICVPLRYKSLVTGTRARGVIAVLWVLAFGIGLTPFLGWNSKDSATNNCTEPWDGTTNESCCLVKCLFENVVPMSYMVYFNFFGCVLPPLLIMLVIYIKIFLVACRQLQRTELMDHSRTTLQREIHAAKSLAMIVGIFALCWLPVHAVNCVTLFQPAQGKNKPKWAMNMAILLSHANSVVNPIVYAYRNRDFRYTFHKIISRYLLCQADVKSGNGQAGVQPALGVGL
In short: as §1

hA2AAR = target: T4, hA2AAR (Homo sapiens, UniProt P29274); assay: Radioligand binding competition, [3H]ZM241385, membranes from HeLa-A2A cells; conditions: for % at 1 μM hA2A (percentage displacement of specific binding): [3H]ZM241385, human HeLa cells, n = 2
T4 construct: expressed in transfected cells; host or cells: HeLa (HeLa-A2A) cell membranes
In short: as §1

hA1AR [4] = target: T5, hA1AR (Homo sapiens, UniProt P30542); assay: Radioligand binding competition, [3H]DPCPX, membranes from CHO-A1 cells; conditions: 1 μM, [3H]DPCPX, human CHO cells, n = 2
T5 sequence (P30542 1-326): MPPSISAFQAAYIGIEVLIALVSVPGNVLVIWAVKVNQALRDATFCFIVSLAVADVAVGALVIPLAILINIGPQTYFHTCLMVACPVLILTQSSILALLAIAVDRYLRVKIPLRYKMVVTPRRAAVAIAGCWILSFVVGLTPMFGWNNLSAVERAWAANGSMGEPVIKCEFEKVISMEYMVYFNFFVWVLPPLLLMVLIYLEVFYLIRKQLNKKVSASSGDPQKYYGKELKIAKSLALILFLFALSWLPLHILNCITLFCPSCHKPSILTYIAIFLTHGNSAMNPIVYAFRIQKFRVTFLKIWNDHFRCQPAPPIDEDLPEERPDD
In short: as §1

hA3AR [5] = target: T2, hA3AR; conditions: prototype series, [3H]NECA, human HeLa cells ref 30, 31; cited from earlier work
hA1AR [6] = target: T5, hA1AR; conditions: prototype series, [3H]DPCPX, human CHO cells ref 30, 31; cited from earlier work
[7] = Figure 1, representative A2B antagonists ref 28-32, read-out: Ki
[8] = 10 μM, substrate 7-benzyloxy-4-trifluoromethyl-coumarin
[9] = substrate dibenzylfluorescein, read-out: CYP3A4 IC50, DBF
[10] = displacement of specific [3H]DPCPX binding in human HEK-293 cells, n = 3

T1 sequence (P08684 whole entry): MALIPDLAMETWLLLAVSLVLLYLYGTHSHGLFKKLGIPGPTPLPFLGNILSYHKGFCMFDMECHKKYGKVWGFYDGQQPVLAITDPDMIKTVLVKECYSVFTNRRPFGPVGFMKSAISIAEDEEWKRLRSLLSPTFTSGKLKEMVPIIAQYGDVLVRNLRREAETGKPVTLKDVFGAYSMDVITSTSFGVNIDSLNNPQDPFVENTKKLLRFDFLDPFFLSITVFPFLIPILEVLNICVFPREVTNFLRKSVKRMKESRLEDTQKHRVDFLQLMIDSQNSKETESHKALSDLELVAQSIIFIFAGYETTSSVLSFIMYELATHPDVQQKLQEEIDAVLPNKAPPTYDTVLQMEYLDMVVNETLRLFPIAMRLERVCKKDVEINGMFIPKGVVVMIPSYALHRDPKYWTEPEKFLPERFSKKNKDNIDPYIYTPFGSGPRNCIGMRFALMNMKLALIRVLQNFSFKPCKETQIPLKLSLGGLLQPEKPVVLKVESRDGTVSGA
T4 sequence (P29274 whole entry): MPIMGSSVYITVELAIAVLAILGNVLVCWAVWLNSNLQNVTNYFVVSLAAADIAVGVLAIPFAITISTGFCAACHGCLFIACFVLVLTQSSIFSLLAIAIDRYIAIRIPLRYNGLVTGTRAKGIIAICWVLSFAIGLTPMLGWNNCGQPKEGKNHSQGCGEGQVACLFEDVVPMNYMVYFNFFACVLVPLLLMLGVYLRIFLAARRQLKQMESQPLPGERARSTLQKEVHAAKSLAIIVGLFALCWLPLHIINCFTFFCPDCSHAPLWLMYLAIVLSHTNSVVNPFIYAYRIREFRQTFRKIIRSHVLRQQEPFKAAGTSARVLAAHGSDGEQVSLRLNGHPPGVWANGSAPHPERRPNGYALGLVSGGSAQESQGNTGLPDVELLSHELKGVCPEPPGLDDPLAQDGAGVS

Compound	% at 1 μM hA3 (percentage displacement of specific binding) (hA3AR [3])	Ki (hA2BAR; [10])	% at 1 μM hA2A (percentage displacement of specific binding) (hA2AAR)	% at 1 μM hA1 (percentage displacement of specific binding) (hA1AR [4])	other results
PSB-603	–	–	–	–	Ki (A2B; Table 8 ref 28, read-out: hA2B Ki): 0.553 nM
C[C@]12CC[C@H]3[C@@H](CCC4=CC(=O)CC[C@@]43C)[C@@H]1CC[C@@H]2O [testosterone, reference compound]	–	–	–	–	half-life at 1 h [1]: 16.1 min
O=c1c(-c2ccccc2)nnc2n(-c3ccccc3)c3ccc(Cl)cc3n12 [compound 5]	–	–	–	–	Ki (A2B; [7]): 1.4 nM
CC1=C(C(=O)OC(C)C)C(c2cocn2)n2c(nc3cc(F)ccc32)N1 (stereo not shown) [18b]	20%	6.1 ± 0.3 nM	20%	29%	microsomal stability percent (percentage remanent) [1]: 35.15%; microsomal CLint at 1 h [1]: 12.8 µL/min/mg; half-life at 1 h [1]: 40.8 min; CYP3A4 % inh. at 10 μM, 7-BFC (CYP3A4; [8]): 52%; CYP3A4 % inh. at 10 μM, DBF (CYP3A4; 10 μM, substrate dibenzylfluorescein): 31%; IC50 (CYP3A4; [9]): > 10000 nM; solubility at 4 h [2]: 64.6 µM (≈ 23 µg/mL); Exp. dG (hA2BAR): -11.2; Ki (hA2BAR): < 10 nM
CC(=O)[C@H]1CC[C@H]2[C@@H]3CCC4=CC(=O)CC[C@]4(C)[C@H]3CC[C@]12C [progesterone, reference compound]	–	–	–	–	solubility at 4 h [2]: 6.7 µM (≈ 2.11 µg/mL)
c1cncc(Nc2ncc(-c3ccncn3)c(-c3ccco3)n2)c1 [LAS38096, 4′-(2-Furyl)-N-Pyridin-3-Yl-4,5‘-Bipyrimidin-2‘-Amine]	–	–	–	–	Ki (A2B; [7]): 17 nM
CC1=C(C(=O)OC(C)C)C(c2ccoc2)n2c(nc3ccccc32)N1 (stereo not shown) [IV]	–	–	–	–	% at 1 μM hA3 (percentage displacement of specific binding) (hA3AR [5]): 2%; % at 1 μM hA1 (percentage displacement of specific binding) (hA1AR [6]): 12%; Exp. dG (hA2BAR): -10.83
CC1=C(C(=O)OC(C)C)C(c2ccoc2)n2c(nc3cc(Cl)ccc32)N1 (stereo not shown) [16l]	1%	6.1 ± 0.7 nM	–	27%	microsomal stability percent (percentage remanent) [1]: 41.02%; microsomal CLint at 1 h [1]: 11.7 µL/min/mg; half-life at 1 h [1]: 44.8 min; CYP3A4 % inh. at 10 μM, 7-BFC (CYP3A4; [8]): 44%; IC50 (CYP3A4; substrate 7-benzyloxy-4-trifluoromethyl-coumarin, read-out: CYP3A4 IC50, 7-BFC): > 10000 nM; IC50 (CYP3A4; [9]): 6360 ± 1020 nM; solubility at 4 h [2]: 21.9 µM (≈ 8.14 µg/mL); Exp. dG (hA2BAR): -11.2; Ki (hA2BAR): < 10 nM; Ki (hA2AAR; displacement of specific [3H]ZM241385 binding in human HeLa cells, n = 3, read-out: Ki hA2A): 176 ± 4 nM
CC1=C(C(=O)OC(C)C)C(c2ccco2)NC(=S)N1 (stereo not shown) [SYAF030]	–	–	–	–	Ki (A2B; [7]): 10.2 nM
CCCn1c(=O)[nH]c2nc(-c3ccc(S(=O)(=O)N4CCN(c5ccc(Br)cc5)CC4)cc3)[nH]c2c1=O [PSB-1901]	–	–	–	–	Ki (A2B; [7]): 0.083 nM
CCOC(=O)C1=C(C)Nc2nc3ccccc3n2C1c1cocn1 (stereo not shown) [IX]	–	–	–	–	Ki (A2B; [7]): 8.1 nM
CCCn1c(=O)c2[nH]c(-c3cnn(Cc4cccc(C(F)(F)F)c4)c3)nc2n(CCC)c1=O [CVT-7124]	–	–	–	–	Ki (A2B; [7]): 6 nM
CC1=C(C(=O)OC(C)C)C(c2ccoc2)n2c(nc3cc(Cl)c(Cl)cc32)N1 (stereo not shown) [14l]	8%	–	31%	4%	% at 1 μM hA2B (percentage displacement of specific binding) (hA2BAR): 36%
CC1=C(C(=O)OC(C)C)C(c2cocn2)n2c(nc3ccc(F)cc32)N1 (stereo not shown) [17b]	22%	7.6 ± 0.6 nM	19%	34%	Exp. dG (hA2BAR): -11.07; Ki (hA2BAR): < 10 nM
CCOC(=O)C1=C(C)Nc2nc3cc(Cl)c(Cl)cc3n2C1c1ccoc1 (stereo not shown) [14k]	6%	54.7 ± 3.2 nM	34%	33%	–
CC1=C(C(=O)OC(C)C)C(c2ccco2)n2c(nc3ccc(Br)cc32)N1 (stereo not shown) [15r]	6%	273 ± 4 nM	1%	46%	Ki (hA2BAR): ~45 nM
CC1=C(C(=O)OC(C)C)C(c2ccco2)n2c(nc3cc(Cl)c(Cl)cc32)N1 (stereo not shown) [14j]	7%	117 ± 5 nM	12%	43%	–
CCOC(=O)C1=C(C)Nc2nc3ccc(Cl)cc3n2C1c1ccsc1 (stereo not shown) [15o]	3%	–	2%	4%	% at 1 μM hA2B (percentage displacement of specific binding) (hA2BAR): 50%
CCOC(=O)C1=C(C)Nc2nc3cc(Cl)ccc3n2C1c1ccsc1 (stereo not shown) [16o]	8%	911 ± 14 nM	7%	2%	Exp. dG (hA2BAR): -8.235
CCOC(=O)C1=C(C)Nc2nc3ccc(F)cc3n2C1c1ccsc1 (stereo not shown) [15g]	3%	1030 ± 95 nM	1%	7%	Exp. dG (hA2BAR): -8.162
CC1=C(C(=O)OC(C)C)C(c2ccsc2)n2c(nc3cc(Br)c(Br)cc32)N1 (stereo not shown) [14x]	8%	–	1%	4%	% at 1 μM hA2B (percentage displacement of specific binding) (hA2BAR): 9%
